Assay results published in patent publication EP0252380B1, “Antibiotic LL-E19020 alpha and beta” (AMERICAN CYANAMID COMPANY, priority 1986, dated 1988).
Values after ≈ are worked out from the molar mass of the structure shown. Marks after values point to notes of the source that are not given here.

How the values were obtained:
[1] = tested on: Pasteurella multocida 31081B; assay: Pasteurella disk test (primary in vitro disk diffusion test); conditions: disks soaked in 2.5 mg/ml solution; strain 31081B
[2] = tested on: Staphylococcus saprophyticus; assay: In vitro antibacterial activity, standard agar dilution method (Table II); format: cell-based; conditions: strain VHG-84-50
[3] = tested on: Escherichia coli; assay: as above; format: cell-based; conditions: strain 311
[4] = tested on: Bacteroides fragilis; assay: as above; format: cell-based; conditions: strain NYC 77-1
[5] = tested on: Pasteurella haemolytica; assay: Minimum inhibitory concentration by agar dilution (Table VI); format: cell-based; conditions: 3 strains tested
[6] = Weight gain and feed efficiency of broiler chicks (Example 6, Table IX); format: in vivo, Peterson X Arbor Acres chicks; conditions: for Wg Gains And Feed Efficiency % Improvement Over Controls FEED/GAIN: control 1.41
[7] = tested on: Streptococcus pneumoniae; assay: In vitro antibacterial activity, standard agar dilution method (Table II); format: cell-based
[8] = tested on: Treponema hyodysenteriae; assay: Minimum inhibitory concentration by microdilution (Table VII); format: cell-based
[9] = tested on: Pasteurella multocida; assay: Minimum inhibitory concentration by agar dilution (Table VI); format: cell-based; conditions: 6 strains tested
[10] = tested on: In Vitro Rumen Fermentation; assay: Propionate enhancement activity during in vitro rumen fermentation; format: cell-based, steer; conditions: for A:P: acetate/propionate ratio
Procedure: The drugs are dissolved or suspended (sonified if necessary) in a 0.1% Tween 20-ethanol-water vehicle and 25-50 ul is added to the incubation. The reaction is terminated with 6N HCl and centrifuged at 20,000 x g. Alliquots of the superinatant are analyzed for volatile fatty acid (VFA) content by gas-liquid chromatography.

[11] = tested on: Enterococcus; assay: In vitro antibacterial activity, standard agar dilution method (Table II); format: cell-based
[12] = tested on: Morganella morganii; assay: as above; format: cell-based; conditions: strain VGH-84-71
[13] = tested on: Trichostrongylus colubriformis; assay: Trichostrongylus colubriformis/gerbil anthelmintic evaluation; format: in vivo, Gerbils
Procedure: Gerbils are infected with 400 infective larvae of the sheep parasite, T. colubriformis on a day 0. On day 7 gerbils are divided into test and untreated control groups of 2-3 animals. Drug is administered in the feed and are fed from day 7-11. Drugs may also be given by gavage (single oral dose) or injected subcutaneously. Single doses are usually administered on day 7. Gerbils are killed on day 11 and small intestines removed. The number of T. colubriformis remaining in the intestines of treated animals are counted and compared to the number remaining in the untreated controls.

[14] = tested on: Pseudomonas aeruginosa; assay: In vitro antibacterial activity, standard agar dilution method (Table II); format: cell-based; conditions: strain 12-4-4
[15] = tested on: Peptococcus magnus; assay: as above; format: cell-based
[16] = tested on: Caenorhabditis elegans; assay: Control of the free living nematode Caenorhabditis elegans (motility rating); format: cell-based; set-up: key: 9 = worms immobile or dead within 4 hours post immersion in microfilter test solution; 8 = no motility; 7 = markedly reduced motility in approximately 95% of worms; 6 = reduced motility; 5 = slightly reduced motility; 0 = normal motility, same as controls; conditions: 150 ppm; motility of adults and larvae
From the text: Culture Maintenance: Cultures of C. elegans (Bristol strain from J. Lewis) are maintained on E. coli lawns on NG Agar Plates at 20 C. New cultures are established weekly. Nematodes for testing are washed from 4-5 day old cultures using Fresh Ascaris ringers Solution (FARS). The worms are further washed with FARS, containing gentamycin, to reduce bacterial contamination and centrifuged to separate worms from wash solution. This procedure is repeated three times. The washed worms are than added to C. briggsae Maintenance Medium (CbMM), from GIBCO^a to which is added gentamycin (600 units/ml) and mycostatin (0.5 mg.ml). ^aGIBCO Laboratories, 3175 Staley Road, Grand Island, N.Y. 14027, USA Compounds are dissolved in acetone and made up to volume with equal parts of water. The final test concentration of each compound in the mixture is 150 ppm. The test material is micropipetted (25 ul) into a single well of a 96-well sterile tissue culture plate (COSTAR)^b and the solvent allowed to evaporate. These "treated" plates are used immediately or stored in a freezer without apparent adverse effects on the compounds. ^b205 Broadway, Cambridge, MA 02139, USA […] […] Immediately prior to reading the plate, it is gently tapped to stimulate the movement of the worms. Activity is judged subjectively, but semi-quantitatively, based on the drug effects on motility of the adults and larvae. […]

[17] = tested on: Clostridium difficile; assay: In vitro antibacterial activity, standard agar dilution method (Table II); format: cell-based; conditions: strain ATCC 17858
[18] = tested on: Streptococcus agalactiae; assay: Minimum inhibitory concentration by agar dilution (Table VI); format: cell-based; conditions: 4 strains tested

SMILES: C/C=C/C=C/[C@@H]1O[C@](O)([C@H](CO[C@H]2C[C@H](OC)[C@H](O[C@@H]3C[C@H](OC)[C@@H](O[C@H]4C[C@H](OC)[C@H](O)[C@H](C)O4)[C@H](C)O3)[C@H](C)O2)C(=O)NC/C=C/C=C(\C)[C@H](OC)[C@@H](C)[C@@H]2C[C@H](O)[C@@H](/C=C/C=C/C=C\C(=O)O)O2)[C@@H](O)[C@H](OC(=O)Cc2ccccc2)C1(C)C [LL-E19020 beta]
- ZONE SIZE [1]: 13 mm
- Minimal Inhibitory Concentration [2]: > 128 µg/mL
- Minimal Inhibitory Concentration [3]: >128 µg/mL
- Minimal Inhibitory Concentration [4]: >128 µg/mL
- MIC [5]: 16 µg/mL (≈ 13 µM)
- Wg Gains And Feed Efficiency % Improvement Over Controls COMBINED ([6]; 12.5 PPM in diet): 2.6%
- Wg Gains And Feed Efficiency % Improvement Over Controls FEMALES ([6]; 12.5 PPM in diet): 6.0%
- Wg Gains And Feed Efficiency % Improvement Over Controls MALES ([6]; 12.5 PPM in diet): 0%
- Wg Gains And Feed Efficiency % Improvement Over Controls FEED/GAIN ([6]; 12.5 PPM in diet): 1.33**
- Wg Gains And Feed Efficiency % Improvement Over Controls COMBINED ([6]; 25 PPM in diet): 3.4%
- Wg Gains And Feed Efficiency % Improvement Over Controls FEMALES ([6]; 25 PPM in diet): 5.1%
- Wg Gains And Feed Efficiency % Improvement Over Controls MALES ([6]; 25 PPM in diet): 2.4%
- Wg Gains And Feed Efficiency % Improvement Over Controls FEED/GAIN ([6]; 25 PPM in diet): 1.38*
- Wg Gains And Feed Efficiency % Improvement Over Controls COMBINED ([6]; 50 PPM in diet): 2.2%
- Wg Gains And Feed Efficiency % Improvement Over Controls FEMALES ([6]; 50 PPM in diet): 4.6%
- Wg Gains And Feed Efficiency % Improvement Over Controls MALES ([6]; 50 PPM in diet): 0%
- Wg Gains And Feed Efficiency % Improvement Over Controls FEED/GAIN ([6]; 50 PPM in diet): 1.38*
- Wg Gains And Feed Efficiency % Improvement Over Controls COMBINED ([6]; 100 PPM in diet): 4.5%
- Wg Gains And Feed Efficiency % Improvement Over Controls FEMALES ([6]; 100 PPM in diet): 7.2%
- Wg Gains And Feed Efficiency % Improvement Over Controls MALES ([6]; 100 PPM in diet): 1.7%
- Wg Gains And Feed Efficiency % Improvement Over Controls FEED/GAIN ([6]; 100 PPM in diet): 1.34**
- Wg Gains And Feed Efficiency % Improvement Over Controls COMBINED ([6]; 200 PPM in diet): 2.7%
- Wg Gains And Feed Efficiency % Improvement Over Controls FEMALES ([6]; 200 PPM in diet): 1.4%
- Wg Gains And Feed Efficiency % Improvement Over Controls MALES ([6]; 200 PPM in diet): 4.2%
- Wg Gains And Feed Efficiency % Improvement Over Controls FEED/GAIN ([6]; 200 PPM in diet): 1.35**
- Minimal Inhibitory Concentration ([7]; strain K-84-21): 0.5 µg/mL
- Minimal Inhibitory Concentration ([7]; strain SVI): 1 µg/mL
- Minimal Inhibitory Concentration ([7]; strain VGH-84-56): 0.5 µg/mL
- Minimal Inhibitory Concentration ([7]; strain VGH-84-57): 1 µg/mL
- Minimal Inhibitory Concentration ([7]; strain VGH-84-58): 0.25 µg/mL
- Minimal Inhibitory Concentration ([7]; strain VGH-84-59): 0.25 µg/mL
- MIC ([8]; strain B78 (ATCC 27164)): 1 µg/mL (≈ 0.815 µM)
- MIC ([8]; strain B204 (ATCC 31212)): 0.5 µg/mL (≈ 0.408 µM)
- MIC [9]: 8 to 16 µg/mL
- A:P ([10]; Table X, 0.008 PPM, control 2.65): 2.63
- TOTAL VFA ([10]; Table X, 0.008 PPM, control 159.4): 161.2 mM
- A:P ([10]; Table X, 0.031 PPM, control 2.65): 2.44
- TOTAL VFA ([10]; Table X, 0.031 PPM, control 159.4): 161.1 mM
- A:P ([10]; Table X, 0.125 PPM, control 2.65): 2.19
- TOTAL VFA ([10]; Table X, 0.125 PPM, control 159.4): 161.6 mM
- A:P ([10]; Table X, 0.500 PPM, control 2.65): 2.15
- TOTAL VFA ([10]; Table X, 0.500 PPM, control 159.4): 156.7 mM
- A:P ([10]; Table X, 2.000 PPM, control 2.65): 2.18
- TOTAL VFA ([10]; Table X, 2.000 PPM, control 159.4): 153.8 mM
- A:P ([10]; Table XI, 0.015 PPM, control 2.19): 2.03
- TOTAL VFA ([10]; Table XI, 0.015 PPM, control 125.3): 127.2 mM
- A:P ([10]; Table XI, 0.031 PPM, control 2.19): 1.98
- TOTAL VFA ([10]; Table XI, 0.031 PPM, control 125.3): 125.7 mM
- A:P ([10]; Table XI, 0.062 PPM, control 2.19): 1.96
- TOTAL VFA ([10]; Table XI, 0.062 PPM, control 125.3): 123.7 mM
- A:P ([10]; Table XI, 0.125 PPM, control 2.19): 1.92
- TOTAL VFA ([10]; Table XI, 0.125 PPM, control 125.3): 124.3 mM
- A:P ([10]; Table XI, 0.250 PPM, control 2.19): 1.93
- TOTAL VFA ([10]; Table XI, 0.250 PPM, control 125.3): 122.6 mM
- Minimal Inhibitory Concentration ([11]; strain CMC-83-72): >128 µg/mL
- Minimal Inhibitory Concentration ([11]; strain IO-83-28): >128 µg/mL
- Minimal Inhibitory Concentration ([11]; strain IO-83-40): >128 µg/mL
- Minimal Inhibitory Concentration ([11]; strain VGH-84-65): >128 µg/mL
- Minimal Inhibitory Concentration ([11]; strain VGH-84-68): >128 µg/mL
- Minimal Inhibitory Concentration [12]: >128 µg/mL
- % Worms Removed ([13]; 5 m/kg single oral dose): 19%
- % Worms Removed ([13]; 62.5 ppm diet, fed day 7-11): 32%
- % Worms Removed ([13]; 150 ppm diet, fed day 7-11): 86%
- % Worms Removed ([13]; 250 ppm diet, fed day 7-11): 100%
- Minimal Inhibitory Concentration [14]: >128 µg/mL
- Minimal Inhibitory Concentration ([15]; strain ATCC 14956): 0.5 µg/mL
- Minimal Inhibitory Concentration ([15]; strain ATCC 29328): 0.5 µg/mL
- Rating [16]: 9 (immobile or dead)
- Minimal Inhibitory Concentration [17]: 1 µg/mL
- MIC [18]: 2 to 4 µg/mL
